The values that follow come from ChEMBL document CHEMBL3352719 (Bioorg Med Chem, 2014).

Data set [1] in a line: cells. The note with it: Influenza A virus, MDCK, 48 h.
A short description of data set [2]: Cytotoxicity against MDCK cells after 48 hrs by CellTiter96 assay. The class given is cell-based, Canis lupus familiaris. The note with it: dog.
Data set [3] can be described thus: Cytotoxicity against human 293T cells after 48 hrs by CellTiter96 assay. The class given is cell-based, HEK-293T.

Each structure is given as a SMILES string.

Regarding `CCC(CC)O[C@@H]1C=C(C(=O)NO)C[C@H](N)[C@H]1NC(C)=O`, in data set [1], the response was half-maximal at 359 nM (EC50).
Compound `CCC(CC)O[C@@H]1C=C(C(=O)NOC)C[C@H](N)[C@H]1NC(C)=O` displayed an EC50 in data set [1] of 127 nM.
The same measure, in the same setting: for `CCC(CC)O[C@@H]1C=C(C(=O)NOCc2ccccc2)C[C@H](N)[C@H]1NC(C)=O` the value was 72.4 nM.
`CCC(CC)O[C@@H]1C=C(C(=O)NOCCCc2cc3ccccc3[nH]2)C[C@H](N)[C@H]1NC(C)=O` gave an EC50 in data set [1] of 60.1 nM. The EC50 values of the last two compounds are within 1.5-fold of each other.
In the case of `CCC(CC)O[C@@H]1C=C(C(=O)NOC)C[C@H](NC(=N)N)[C@H]1NC(C)=O`, the CC50 at 48 h in data set [2] and in data set [3] was above 100000 nM in each case. The same compound displayed a concentration giving a half-maximal response (EC50) in data set [1] of 71.7 nM.
`CCC(CC)O[C@@H]1C=C(C(=O)NOCc2ccccc2)C[C@H](NC(=N)N)[C@H]1NC(C)=O` yielded an EC50 in data set [1] of 23.8 nM.
Take `CCC(CC)O[C@@H]1C=C(C(=O)NOCCCc2cc3ccccc3[nH]2)C[C@H](NC(=N)N)[C@H]1NC(C)=O`: the CC50 at 48 h in data set [2] and in data set [3] was above 100000 nM each time. The EC50 in data set [1] turned out to be 90.7 nM.
Take `CCC(CC)O[C@@H]1C=C(C(=O)NS(C)(=O)=O)C[C@H](N)[C@H]1NC(C)=O`: the EC50 in data set [1] turned out to be 401 nM.
Same read-out and setting: the result for `CCC(CC)O[C@@H]1C=C(C(=O)NS(=O)(=O)C(F)(F)F)C[C@H](N)[C@H]1NC(C)=O` reads 2220 nM; that for `CCCCS(=O)(=O)NC(=O)C1=C[C@@H](OC(CC)CC)[C@H](NC(C)=O)[C@@H](N)C1`, 1980 nM; that for `CCC(CC)O[C@@H]1C=C(C(=O)NS(=O)(=O)c2ccccc2)C[C@H](N)[C@H]1NC(C)=O`, 7490 nM.
In the case of `CCC(CC)O[C@@H]1C=C(C(=O)NS(C)(=O)=O)C[C@H](NC(=N)N)[C@H]1NC(C)=O`, the 50% cytotoxic concentration (CC50) at 48 h in data set [2] and in data set [3] was above 100000 nM in each case. Besides, the EC50 in data set [1] came out at 59.1 nM.
The compound `CCC(CC)O[C@@H]1C=C(C(=O)NS(=O)(=O)C(F)(F)F)C[C@H](NC(=N)N)[C@H]1NC(C)=O` gave an EC50 in data set [1] of 484 nM.
On the same count and under the same terms, the result for `CCCCS(=O)(=O)NC(=O)C1=C[C@@H](OC(CC)CC)[C@H](NC(C)=O)[C@@H](NC(=N)N)C1` reads 261 nM; that for `CCC(CC)O[C@@H]1C=C(C(=O)NS(=O)(=O)c2ccccc2)C[C@H](NC(=N)N)[C@H]1NC(C)=O`, 593 nM.
Same read-out and setting: the result for `CCC(CC)O[C@@H]1C=C(C(=O)O)C[C@H](N)[C@H]1NC(C)=O` [OSELTAMIVIR CARBOXYLATE] reads 28.2 nM.

By EC50 is commonly meant the midpoint of the concentration-response curve. Lower therefore signals a more potent agent. A word on the CC50: it is the concentration giving 50% cytotoxicity. Read a low CC50 as harm at low concentration.
